According to paper PMC11988454, “Discovery of synthetic small molecules targeting the central regulator of Salmonella pathogenicity” (Science Advances, 2025):

Key:
HeLa cells = test: In vitro toxicity, ApoTox-Glo assay; type: cell-based
[1] = system: T3SS-1 proteins SipA, SctE (SipB), SctP (InvJ); T1SS protein SiiF; test: Western blotting of secreted and whole-cell proteins; type: cell-based, S. Typhimurium; settings: Western blot
Description: Western blot analysis to quantify secreted and nonsecreted proteins was carried out as previously described ([66]). After a 5-hour culture under SPI-1–inducing conditions, cultures were centrifuged at 10,000g for 2 min at 4°C to separate cell pellets for the quantification of target proteins in whole cells, and the supernatant for the quantification of secreted proteins. The supernatants were first filtered with a 0.22-μm pore size filter. Sodium deoxycholic acid was then added to a final concentration of 0.1% (w/v) followed by a protein precipitation with 10% trichloroacetic acid (v/v) for 30 min at 4°C. The samples were pelleted by centrifugation at 20,000g for 20 min at 4°C to retrieve precipitated proteins, which were lastly washed with acetone before resuspension in SDS–polyacrylamide gel electrophoresis (PAGE) loading buffer. Whole-cell samples were directly resuspended in SDS-PAGE loading buffer.

macrophages RAW 264.7 = test: In vitro toxicity, CellTox Green Cytotoxicity Assay, macrophages; type: cell-based; settings: RAW 264.7, 6 hours exposure
Description: The screening of in vitro toxicity of the compound analogs was performed with the CellTox Green Cytotoxicity Assay (Promega, USA) according to the manufacturer’s instructions. Cells (10^4 cells per well) were seeded into a 96-well plate and incubated for 24 hours at 37°C, 5% (v/v) CO2. Cells were then treated with the compound at different concentrations or 1% (v/v) DMSO in Dulbecco’s modified Eagle’s medium (DMEM) without phenol red at the desired exposure time. Fluorescence intensity was measured with a TECAN Spark microplate reader. […] page 4: […] 0 10000 20000 30000 40000 50000 Compound concentration (µM) Cytotoxicity (RFU) Fig. S3. […] Cytotoxicity Assay. Fluorescence was measured as a readout for cytotoxicity at 485Ex/520Em. N = 3 biological replicates. (1 picture or pasted object on this page, not shown here)

HilD [2] = target: T1, HilD (Salmonella typhimurium, UniProt E1WAC0); test: Whole-cell HilD activity assay (PhilA-sfGFP activation); type: cell-based, S. Typhimurium
T1 construct: endogenous in cells; host or cells: S. Typhimurium SL1344 strain PhilA-sfGFP
T1 sequence (E1WAC0 whole entry): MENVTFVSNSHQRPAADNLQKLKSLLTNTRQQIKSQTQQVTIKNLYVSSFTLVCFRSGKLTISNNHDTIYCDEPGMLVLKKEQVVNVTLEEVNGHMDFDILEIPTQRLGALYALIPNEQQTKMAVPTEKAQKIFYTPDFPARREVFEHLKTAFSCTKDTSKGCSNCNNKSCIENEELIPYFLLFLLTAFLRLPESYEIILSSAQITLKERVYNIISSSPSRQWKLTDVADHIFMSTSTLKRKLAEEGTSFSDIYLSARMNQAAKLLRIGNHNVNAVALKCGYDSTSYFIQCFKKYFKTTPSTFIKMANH
Description: A whole-cell reporter gene assay was used to quantify HilD transcriptional activity. Strain PhilA-sfGFP and the isogenic ΔhilD PhilA-sfGFP were used for this purpose. Cultures were performed in 1 ml of LB supplemented with 0.3 M NaCl. Compounds at different concentrations or 1% (v/v) DMSO were added to the corresponding tubes. Cultures were incubated at 37°C and 180 rpm for 5 hours. Cells were pelleted, resuspended in 100 μl of PBS, and then transferred into a 96-well black clear-bottom plate (Thermo Fisher Scientific, USA). Fluorescence intensity was measured with a Tecan Spark microplate reader with an excitation wavelength of 485 nm and an emission wavelength of 510 nm. Dose-response curves and IC50 values were calculated using CDD Vault.

HilD [3] = target: T2, HilD (Salmonella typhimurium, UniProt P0CL08); test: nanoDSF thermal stability, HilD; type: binding, S. Typhimurium
T2 construct: His6-SUMO (N, cleaved yes); made in house; host or cells: E. coli C41(DE3)
T2 sequence (P0CL08 whole entry): as the sequence (E1WAC0 whole entry) above
Description: (§1) Thermal stability of proteins was determined using nanoDSF, with runs performed on a Prometheus NT.48 (NanoTemper Technologies). A twofold serial dilution series of C26 was prepared in DMSO. C26 was added to HilD or HilC (5 μM) in SEC buffer, giving a final DMSO concentration of 1% (v/v). Samples were incubated for >20 min at r.t. and centrifuged for 2 min prior to loading of standard capillaries (no. PR-C002). Samples were heated from 20° to 80°C with a temperature gradient of 0.5°C min^−1. Melting temperatures were calculated from changes in the fluorescence ratio (350/330 nm), using PR.Stability Analysis v1.0.3 and a temperature range of 40° to 70°C for curve fitting. Data analysis was performed using Prism 8.4 (GraphPad). The change in HilD melting temperature, Tm, was fitted as a function of ligand concentration, using Eqs. 1 and 2 to yield apparent affinity (Kd,app) values Tm{[L]0}=Tm,lower+(Tm,upper−Tm,lower)*(1−α{[L]0}) (1) α{[L]0}=[P]t−Kd−[L]t+{[P]t+[L]t+Kd,app}^2−{4[P]t[L]t}/2[P]t (2) where [P]t and [L]t are the total protein and ligand concentrations, respectively.

HilC [4] = target: T3, HilC (Salmonella typhimurium, UniProt E1WAB2); test: nanoDSF thermal stability, HilC; type: binding, S. Typhimurium
T3 construct: His6 followed by TEV protease cleavage site (N, cleaved yes); made in house; host or cells: E. coli C41(DE3)
T3 sequence (E1WAB2 whole entry): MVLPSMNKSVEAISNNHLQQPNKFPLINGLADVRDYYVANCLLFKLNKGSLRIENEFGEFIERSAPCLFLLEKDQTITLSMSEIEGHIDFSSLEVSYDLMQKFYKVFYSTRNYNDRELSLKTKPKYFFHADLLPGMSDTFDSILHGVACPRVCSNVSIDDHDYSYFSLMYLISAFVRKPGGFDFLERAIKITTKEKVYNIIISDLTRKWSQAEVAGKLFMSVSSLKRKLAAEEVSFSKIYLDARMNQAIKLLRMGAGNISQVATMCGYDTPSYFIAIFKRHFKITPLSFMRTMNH
Description: as §1

HilC [5] = target: T3, HilC; test: EMSA, binding to hilA promoter, HilC; type: biochemical, S. Typhimurium
Description: EMSAs were performed similarly to as described previously ([39]) using a 62–base pair double-stranded (dsDNA) fragment of the hilA promoter, encompassing the A1 binding site ([82]). dsDNA fragments were generated by melting the complementary primers PhilA_A1_f / PhilA_A1_r (table S10) together in TE buffer [10 mM Tris (pH 8.0) and 1 mM EDTA] at 95°C for 10 min before slowly cooling to r.t. The forward primer was modified with a 5′-Cy5 fluorescent dye for detection. The protein (600 nM) was incubated with 50 nM labeled DNA in EMSA buffer [20 mM Tris (pH 8.0), 100 mM KCl, 100 μM EDTA, and 3% glycerol]. C26 was diluted first in DMSO and subsequently 1:100 into the protein-DNA sample. Samples were incubated at 37°C for 15 min, supplemented with diluted DNA loading dye, and separated on a 1.5-mm-thick, 6% (w/v) TBE polyacrylamide gel at 6°C at a constant voltage of 100 V. Gels were imaged using a ChemiDocMP imaging system (Bio-Rad).

HilD mutants [6] = target: T4, HilD mutants (Salmonella typhimurium, UniProt P0CL08, I100A); test: EMSA, binding of HilD mutants to PhilA; type: biochemical, S. Typhimurium; settings: 600 nM protein
T4 construct: His6-SUMO (N, cleaved yes); made in house; host or cells: E. coli C41(DE3)
T4 sequence (P0CL08 whole entry I100A): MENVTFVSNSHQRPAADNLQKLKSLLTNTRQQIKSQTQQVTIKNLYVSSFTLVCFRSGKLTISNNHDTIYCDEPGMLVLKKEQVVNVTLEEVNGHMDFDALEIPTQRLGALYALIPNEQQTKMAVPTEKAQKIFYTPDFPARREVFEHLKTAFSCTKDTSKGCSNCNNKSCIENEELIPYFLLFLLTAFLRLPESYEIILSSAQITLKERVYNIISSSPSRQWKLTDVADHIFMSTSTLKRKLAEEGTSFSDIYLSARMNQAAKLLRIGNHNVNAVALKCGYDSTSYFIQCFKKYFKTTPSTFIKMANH
Description: (§2) (F) EMSAs showing the binding of 600 nM HilDWT, HilDL45A, HilDY46A, HilDI100A, and HilDY212A to PhilA, upon incubation with the indicated concentrations of C26.

HilD mutants [7] = test: EMSA, binding of HilD mutants to PhilA; type: biochemical, S. Typhimurium; settings: 600 nM protein
Description: as §2

**Q.** `CN(CC(=O)NCc1ccc2c(c1)OCO2)Cc1ccc(Br)s1` [C26, N-(benzo[d][1,3]dioxol-5-ylmethyl)-2-{[(5-bromothiophen-2-yl)methyl](methyl)amino}acetamide] was tested. Which TC50 viability (HeLa cells; 12 hours exposure) did it give?
**A.** Its TC50 viability is “could not be calculated because of low toxicity levels”.

**Q.** And the TC50 viability (HeLa cells; 18 hours exposure)?
**A.** The TC50 viability was 98 µM.

**Q.** What about the “SipA, SctE and SctP secretion into the culture supernatant” value [1] of the same compound?
**A.** The value was “reduced in a dose-dependent manner”.

**Q.** And the “expression of SipA, SctE and SctP in whole cells” value [1]?
**A.** Its value is “blocked the expression”.

**Q.** And the “expression of SiiF” value ([1]; FLAG-tagged SiiF)?
**A.** Its value is “dose-dependent reduction”.

**Q.** And the toxicity in macrophages (macrophages RAW 264.7)?
**A.** The toxicity in macrophages was “No toxicity was observed”.

**Q.** And the IC50 (HilD [2])?
**A.** Its IC50 is 16.9 µM.

**Q.** And the Kd (HilD [3])?
**A.** Its Kd is 30.2 µM.

**Q.** What about the “thermal stability of HilC” value (HilC [4]) of the same compound?
**A.** Its value is “no effect on the thermal stability”.

**Q.** What about the “DNA binding activity of HilC (hilA promoter)” value (HilC [5]) of the same compound?
**A.** The value was “no effect”.

**Q.** And the “HilDI100A binding to PhilA” value (HilD mutants [6])?
**A.** The value was “hindered”.

**Q.** What about the “DNA binding ability of HilDL45A, HilDY46A, HilDY212A” value (HilD mutants [7]) of the same compound?
**A.** Its value is “did not exert any effect”.
